Results from ChEMBL document CHEMBL1144256, “Potent Kv1.3 inhibitors from correolide-modification of the C18 position” (Bioorg Med Chem Lett, 2005).
pIC50: −log10 of the molar value.

Target: Potassium voltage-gated channel subfamily A member 3 (Homo sapiens, UniProt P22001)
Assay: Inhibitory activity against voltage-gated potassium channel subunit Kv1.3
Format: functional

Potassium voltage-gated channel subfamily A member 3, sequence (P22001 whole entry): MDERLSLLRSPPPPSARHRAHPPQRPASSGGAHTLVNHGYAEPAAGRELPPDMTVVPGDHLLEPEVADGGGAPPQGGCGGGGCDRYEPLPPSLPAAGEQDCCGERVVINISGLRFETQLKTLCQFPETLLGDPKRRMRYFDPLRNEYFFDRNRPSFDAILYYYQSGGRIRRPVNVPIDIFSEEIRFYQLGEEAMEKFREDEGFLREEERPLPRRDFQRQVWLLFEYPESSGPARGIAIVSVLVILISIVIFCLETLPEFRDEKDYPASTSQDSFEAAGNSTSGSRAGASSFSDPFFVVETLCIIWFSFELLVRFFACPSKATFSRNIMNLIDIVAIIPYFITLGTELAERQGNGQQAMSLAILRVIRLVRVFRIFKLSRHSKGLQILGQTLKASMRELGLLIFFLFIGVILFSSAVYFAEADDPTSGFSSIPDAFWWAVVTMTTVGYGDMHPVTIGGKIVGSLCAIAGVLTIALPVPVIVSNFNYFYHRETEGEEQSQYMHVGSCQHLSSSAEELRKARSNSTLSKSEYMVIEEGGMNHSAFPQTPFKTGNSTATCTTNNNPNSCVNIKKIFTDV

SMILES: C=C1C[C@@]2(O)C3CC[C@]4(C)C([C@H](OC(C)=O)[C@H](OC(C)=O)[C@@]5([C@@H](C)OC(C)=O)COCC=CC45)[C@@]3(C)[C@H](OC(C)=O)[C@H](OC(C)=O)[C@@]2(C)C2(C(=O)OC)O[C@H]12 (stereo partly specified)
- pIC50: 8.00
